Assay results from patent publication US9434738B2, “Macrocyclic benzofuran and azabenzofuran compounds for the treatment of hepatitis C” (BRISTOL-MYERS SQUIBB COMPANY, priority 2013, dated 2016).
pEC50: −log10 of the molar value. Read-outs that look alike come from different tables or passages of the source.

Tests used:
[1] = tested on: genotype 1b HCV replicon in Huh-7 cells; assay: HCV replicon luciferase assay, genotype 1b; type: cell-based; settings: Hepatitis C virus, 72 h, Huh-7, Renilla luciferase, 3 days; for pEC50: read-out: EC50 1b (class); for EC50: read-out: EC50 (uM) 1b
Protocol: Cell lines. The cell lines used to evaluate compounds consist of a human hepatocyte derived cell line (Huh-7) that constitutively expresses a genotype 1a or 1b HCV replicon containing a Renilla luciferase reporter gene. These cells were maintained in Dulbecco's modified Eagle medium (DMEM) containing 10% FBS, 100 U/mL penicillin/streptomycin and 1.0 mg/mL G418.
HCV Replicon Luciferase Assay.
To evaluate compound efficacy, HCV replicon cells were seeded in 96-well plates in DMEM containing 10% FBS at a cell density of 10^4/well. Following incubation at 37° C. overnight, compounds serially diluted in DMSO were added to the cell plates. Alternatively, titrated compounds were transferred to sterile 384-well tissue-culture treated plates and the plates seeded with 50 μL of cells at a density of 2.4×10^3 cells/well in DMEM containing 4% FCS (final DMSO concentration at 0.5%). After 3 days incubation at 37° C., cells were analyzed for Renilla Luciferase activity using the EnduRen substrate (Promega cat #E6485) according to the manufacturer's directions. Briefly, the EnduRen substrate was diluted in DMEM and then added to the plates to a final concentration of 7.5 μM. The plates were incubated for at least 1 h at 37° C. then read on a TopCount NXT Microplate Scintillation and Luminescence Counter (Packard) or Viewlux Imager (PerkinElmer) using a luminescence program. The 50% effective concentration (EC50) was calculated using the exponential form of the median effect equation where EC50=100−[(δFinh/δFcon)×100].

[2] = tested on: HCV RNA levels; settings: cited from earlier work
[3] = tested on: HCV; settings: combination therapy; cited from earlier work

| Compound | pEC50 [1] | EC50 [1] [µM] | further results |
| --- | --- | --- | --- |
| CNC(=O)c1c(-c2ccc(F)cc2)oc2cc3c(cc12)-c1cc(C(=O)NC(C)(C)C)cc(c1)N(S(C)(=O)=O)CCCCN3S(C)(=O)=O [Compound 1001] | 6.00 to 7.00 | 0.171 |  |
| CNC(=O)c1c(-c2ccc(F)cc2)oc2cc3c(cc12)-c1cc(C(=O)NC(C)(C)C)cc(c1)N(S(C)(=O)=O)CCCCCN3S(C)(=O)=O [Compound 1002] | 6.00 to 7.00 |  |  |
| CNC(=O)c1c(-c2ccc(F)cc2)oc2cc3c(cc12)-c1cc(C(=O)NC(C)(C)C)cc(c1)N(S(C)(=O)=O)CCCCCCN3S(C)(=O)=O [Compound 1003] | 6.00 to 7.00 |  |  |
| CNC(=O)c1c(-c2ccc(F)cc2)oc2cc3c(cc12)-c1cc(C(=O)NC(C)(C)C)cc(c1)N(S(C)(=O)=O)CCCCCCCN3S(C)(=O)=O [Compound 1004] | > 7.00 | 0.0477 |  |
| CNC(=O)c1c(-c2ccc(F)cc2)oc2cc3c(cc12)-c1cc(C(=O)NC(C)(C)C)cc(c1)N(S(C)(=O)=O)CCCCCCCCN3S(C)(=O)=O [Compound 1005] | 6.00 to 7.00 |  |  |
| CNC(=O)c1c(-c2ccc(F)cc2)oc2cc3c(cc12)-c1cc(C(=O)NC(C)(C)C)cc(c1)N(S(C)(=O)=O)CCc1ccc(cc1)CCN3S(C)(=O)=O [Compound 1006] | < 6.00 | 1.21 |  |
| CNC(=O)c1c(-c2ccc(F)cc2)oc2cc3c(cc12)-c1cc(cc(C(=O)NC(C)(C)C)c1)NC(=O)CCCCC(=O)N3 [Compound 1051] | < 6.00 |  |  |
| CNC(=O)c1c(-c2ccc(F)cc2)oc2cc3c(cc12)-c1cc(cc(C(=O)NC(C)(C)C)c1)NC(=O)CCCCCCCCC(=O)N3 [Compound 1052] | 6.00 to 7.00 | 0.789 |  |
| CNC(=O)c1c(-c2ccc(F)cc2)oc2cc3c(cc12)-c1cc(cc(C(=O)NC(C)(C)C)c1)NC(=O)CCCCCCCCCCC(=O)N3 [Compound 1053] | 6.00 to 7.00 |  |  |
| CNC(=O)c1c(-c2ccc(F)cc2)oc2cc3c(cc12)-c1cc(cc(C(=O)NC(C)(C)C)c1)NC(=O)OCCOC(=O)N3 [Compound 1054] | < 6.00 |  |  |
| CNC(=O)c1c(-c2ccc(F)cc2)oc2cc3c(cc12)-c1cc(cc(C(=O)NC(C)(C)C)c1)NC(=O)OCCOCCOC(=O)N3 [Compound 1055] | < 6.00 |  |  |
| CNC(=O)c1c(-c2ccc(F)cc2)oc2cc3c(cc12)-c1cc(cc(C(=O)NC(C)(C)C)c1)NC(=O)OCCOCCOCCOC(=O)N3 [Compound 1056] | < 6.00 | 8.34 |  |
| CNC(=O)c1c(-c2ccc(F)cc2)oc2cc3c(cc12)-c1cc(cc(C(=O)NC(C)(C)C)c1)NC(=S)NCCCCNC(=S)N3 [Compound 1057] | < 6.00 |  |  |
| CNC(=O)c1c(-c2ccc(F)cc2)oc2cc3c(cc12)-c1cc(cc(C(=O)NC(C)(C)C)c1)NC(=S)NCCCCCCCCNC(=S)N3 [Compound 1058] | < 6.00 |  |  |
| CNC(=O)c1c(-c2ccc(F)cc2)oc2cc(N(CCO)S(C)(=O)=O)c(C3CC3)cc12 [HCV-796] |  |  | hepatic toxicity ([2]; extended dosing of the combination regimens): hepatic toxicity observed; HCV RNA levels in patients ([2]; patients, single agent or combined with interferon and ribavirin): reduce HCV RNA levels |
| alpha-interferon and ribavirin |  |  | sustained efficacy [3]: 40 % of patients |
